Measurements from US4132737A, “Trifluoromethyl substituted 1-aminoindanes” (Eli Lilly and Company, priority 1978, dated 1979).
Counter-ions that a name gives are not always drawn.

Columns and labels:
catechol amine uptake = details: literature statement, no figures; cited from earlier work
[1] = target: T1, norephineprine N-methyl transferase (Oryctolagus cuniculus, UniProt G1TT82); experiment: in vitro inhibition of N-methyl transferase (NMT) from rabbit adrenals; type: biochemical; details: from concentration giving 50 percent inhibition, decreasing concentrations from 1 × 10^-4 M, read-out: pI50 (converted)
T1 construct: employing NMT from rabbit adrenals; from tissue; host or cells: rabbit adrenals
T1 sequence (G1TT82 1-286): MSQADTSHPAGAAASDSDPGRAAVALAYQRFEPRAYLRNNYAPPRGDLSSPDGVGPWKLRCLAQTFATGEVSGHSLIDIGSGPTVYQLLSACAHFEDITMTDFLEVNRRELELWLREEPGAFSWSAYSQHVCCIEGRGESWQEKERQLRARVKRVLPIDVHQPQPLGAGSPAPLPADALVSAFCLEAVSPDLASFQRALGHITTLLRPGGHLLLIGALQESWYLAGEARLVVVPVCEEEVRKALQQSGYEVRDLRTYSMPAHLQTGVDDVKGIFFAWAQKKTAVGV
Text: The compounds of this invention, either in the form of the free base, or as a pharmaceutically-acceptable acid addition salt thereof, are enzyme inhibitors. In particular, as previously stated, they are inhibitors of norephineprine N-methyl transferase [PNMT or phenethanolamine N-methyl transferase - - see Axelrod, J. Bio. Chem., 237, 1657 (1962)]. Compounds which inhibit the conversion of norephineprine to ephineprine are capable of lowering a high ephineprine-norephineprine ratio in mammals, a physiological condition frequently associated with essential hypertension. The compounds of this invention are thus capable of ameliorating the ephineprine-norephineprine imbalance in essential hypertension, an important aspect of the treatment of this disease state. The effectiveness of the compounds as N-methyl transferase inhibitors has been measured in vitro employing NMT from rabbit adrenals. By using a series of decreasing concentration of the inhibiting amine, usually starting with 1 × 10^-4 M continuing with 3 × 10^-5 M, 1 × 10^-5 M, etc., it was possible to determine a concentration at which the 50 percent inhibition of NMT was achieved. The negative reciprocal logarhithm (pI50) of this number was also calculated as a useful index. Table 1, which follows, summarizes the information thus obtained; i.e., the determination of enzyme inhibition activity for the compounds of this invention. […]

Compound	inhibitor of catechol amine uptake, compared with 1-aminoindane (catechol amine uptake)	IC50 [1]	pKa (pKa determination)
NC1Cc2ccccc2C1 [2-aminoindane]	better inhibitor of catechol amine uptake than 1-aminoindane		
NC1CCc2c1cccc2C(F)(F)F (centres unmarked) [4-trifluoromethyl-1-aminoindane hydrochloride]		0.234 µM	8.58
NC1CCc2ccc(C(F)(F)F)cc21 (centres unmarked) [6-Trifluoromethyl-1-aminoindane hydrochloride]		64.6 µM	8.52
